Where two headings read alike, the source gives them in different places.
Legend:
tubulin [1] = details: background statement, literature; cited from earlier work
[2] = system: Burkitt lymphoma CA46 cells; assay: Inhibition of CA46 cell growth; format: cell-based; details: Homo sapiens
tubulin [3] = system: T1, tubulin; assay: Inhibition of tubulin polymerization; format: biochemical; details: tubulin 10 μM; extent of assembly measured; asterisk: rate but not extent inhibited up to 40 μM
T1 construct: other: tubulin 10 μM; extent of assembly measured; asterisk: rate but not ex; tubulin 1.0 μM; [3H]colchicine; [3H]colchicin

tubulin [4] = system: T1, tubulin; assay: Inhibition of [3H]colchicine binding to tubulin; details: tubulin 1.0 μM, [3H]colchicine 5.0 μM
[5] = system: MCF-7 human breast carcinoma cell line; assay: Inhibition of MCF-7 cell growth; format: cell-based
[6] = CA46, read-out: Inhibition of CA46 cell growth IC50

melting point | Compound | IC50 (tubulin [3]) | Inhibition of colchicine binding (% inhibition), 5 μM inhibitor (tubulin [4]) | other results
 | COc1ccc2[nH]c(-c3ccc4c(c3)OCO4)c(-c3cc(OC)c(OC)c(OC)c3)c2c1 [(C)] |  |  | tubulin binding activity (tubulin [1]): moderate
121 to 122 °C | COc1ccc(-c2oc3cc(OC)ccc3c2Cc2cc(OC)c(OC)c(OC)c2)cc1 [BLF-70-3, 6-Methoxy-2-(4-methoxyphenyl)-3-(3,4,5-trimethoxybenzyl)benzo[b]furan] |  |  | 
53 to 54 °C | COc1ccc(-c2oc3cc(OC)ccc3c2C(O)c2cc(OC)c(OC)c(OC)c2)cc1 (centres unmarked) [BLF-68-3] |  |  | 
 | COc1ccc2c(C(O)c3ccc(OC)c(O)c3)c(-c3cc(OC)c(OC)c(OC)c3)sc2c1 (centres unmarked) [BLF-34-3] | 6100 ± 800 nM | 5% | IC50 [2, 6]: > 1000 nM; Inhibition of colchicine binding (% inhibition), 50 μM inhibitor (tubulin [4]): 73%
98 to 99 °C | COc1ccc2c(-c3cc(OC)c(OC)c(OC)c3)c(-c3ccc(OC)c(O)c3)[nH]c2c1 [BLF-61-3, 6-Methoxy-2-(3-hydroxy-4-methoxyphenyl)-3-(3,4,5-trimethoxyphenyl)indole] |  |  | 
68 to 69 °C | COc1ccc2c(C(O)c3cc(OC)c(OC)c(OC)c3)c(-c3ccc(OC)c(O)c3)oc2c1 (stereo not drawn) [BLF-69-3, 6-Methoxy-2-(3-hydroxy-4-methoxyphenyl)-3-[α-hydroxy-α-(3,4,5-trimethoxyphenyl)methyl]benzo[b]furan] |  |  | 
 | COc1ccc(C2=C(C(=O)c3cc(OC)c(OC)c(OC)c3)C(=O)c3cc(OC)c(OC)c(OC)c32)cc1O [DK-12a-1, 3-(3′-Hydroxy-4′-methoxyphenyl)-4,5,6-trimethoxy-2-(3′,4″,5″-trimethoxybenzoyl)indenone] | 10000 to 40000 nM |  | 
 | COc1ccc(-c2oc3cc(O)c(OC)cc3c2-c2cc(OC)c(OC)c(OC)c2)cc1O [(D)] |  |  | tubulin binding activity (tubulin [1]): did not exhibit tubulin binding activity
 | COc1ccc(/C=C\c2cc(OC)c(OC)c(OC)c2)cc1O [(A), Combretastatin A4, reference compound] |  | 91% | IC50 ([2]; Burkitt lymphoma CA46 cells, read-out: Inhibition of CA46 cell growth IC50): 1 nM
123 to 125 °C | COc1ccc2c(C(=O)c3cc(OC)c(OC)c(OC)c3)c(-c3ccc(OC)c(O)c3)sc2c1 [BLF-86-1, 2-(3′-Hydroxy-4′-methoxyphenyl)6-methoxy-3-(3″,4″,5″-trimethoxybenzoyl)benzo[b]thiophene] |  |  | 
 | COc1ccc(C2=C(c3cc(OC)c(OC)c(OC)c3)CCS2)cc1OC(C)=O [GPF-60-1, 2-(3′-acetoxy-4′-methoxyphenyl)-4,5-dihydro-3-(3″,4″,5″-trimethoxyphenyl)thiophene] | 3600 ± 1000 nM | 64% | IC50 ([5]; Homo sapiens, MCF7, read-out: Inhibition of cell growth IC50 (MCF-7)): 390 nM; Inhibition of colchicine binding (% inhibition), 50 μM inhibitor (tubulin [4]): 88%
 | COc1ccc(C(=O)c2cc3cc(O)c(OC)cc3s2)cc1O [KH-2-2, 5-Hydroxy-2-(3′-hydroxy-4′-methoxybenzoyl)-6-methoxybenzo[b]thiophene] | 2400 ± 400 nM |  | 
68 to 69 °C | COc1ccc2c(C(=O)c3cc(OC)c(OC)c(OC)c3)c(-c3ccc(OC)c(O)c3)oc2c1 [BLF-62-3, 6-Methoxy-2-(3-hydroxy-4-methoxyphenyl)-3-(3,4,5-trimethoxybenzoyl)benzo bifuran] |  |  | 

Compound | melting point | IC50 (tubulin [3]) | Inhibition of colchicine binding (% inhibition), 5 μM inhibitor (tubulin [4]) | other results
COc1ccc(-c2sccc2C(=O)c2cc(OC)c(OC)c(OC)c2)cc1O [BLF-89-3] | 151 to 152 °C | 1000 ± 100 nM | 67% | IC50 ([5]; MCF7, MCF-7 human breast carcinoma cell line, read-out: Inhibition of cell growth IC50 (MCF-7)): 300 nM
COc1ccc(-c2sc3cc4c(cc3c2C(=O)c2cc(OC)c(OC)c(OC)c2)OCO4)cc1O [BLF-53-3, 2-(3′-Hydroxy-4′-methoxyphenyl)-5,6-methylendioxy-3-(3″,4″,5″-trimethoxybenzoyl)benzo[b]thiophene] | 156 to 157 °C | > 40000 nM | 2% | IC50 [2, 6]: > 1000 nM; Inhibition of colchicine binding (% inhibition), 50 μM inhibitor (tubulin [4]): 31%

— patent US20050130221A1, “Synthesis for the preparation of compounds for screening as potential tubulin binding agents” (The Australian National University, priority 2001, published 2005)
